Measured values from patent US20050197350A1, “Novel quinoline, tetrahydroquinazoline, and pyrimidine derivatives and methods of treatment related to the use thereof” (TAISHO PHARMACEUTICAL CO., LTD., priority 2003, published 2005).

These molecules were tested on MCH receptors (assay: MCH receptor activity class (method not given)). Conditions: activity class per percent of control at 10^-7 M or IC50.

Row | Compound | class
1 | COc1cc(CC(=O)N[C@H]2CC[C@@H](Nc3nc4c(c(N(C)C)n3)CCCC4)CC2)cc(OC)c1 [compound 978] | 3 (Class 3 The value of percent of control at 10^−7 M was more than 60% or the value of IC50 was more than 200 nM.)
2 | CN(C)c1nc(N[C@H]2CC[C@@H](NC(=O)Cc3cc(C(C)(C)C)c(O)c(C(C)(C)C)c3)CC2)nc2c1CCCC2 [compound 979] | 3 (Class 3 The value of percent of control at 10^−7 M was more than 60% or the value of IC50 was more than 200 nM.)
3 | CN(C)c1cccc(C(=O)N[C@H]2CC[C@@H](Nc3nc4c(c(N(C)C)n3)CCCC4)CC2)c1 [compound 981, 3-(dimethylamino)-N-(cis-4-{[4-(dimethylamino)-5,6,7,8-tetrahydroquinazolin-2-yl]amino}cyclohexyl)benzamide] | 2 (Class 2: The value of percent of control at 10^−7 M was from 40% to 60% or the value of IC′50 was from 50 nM to 200 nM.)
4 | CN(C)c1nc(N[C@H]2CC[C@@H](NC(=O)c3cc(Br)c(Br)o3)CC2)nc2c1CCCC2 [compound 982] | 1 (Class 1: The value of percent of control at 10^−7 M was less than 40% or the value of IC50 was less than 50 nM.)
5 | CN(C)c1nc(N[C@H]2CC[C@@H](NC(=O)CCC(=O)c3ccc(F)cc3)CC2)nc2c1CCCC2 [compound 983] | 2 (Class 2: The value of percent of control at 10^−7 M was from 40% to 60% or the value of IC′50 was from 50 nM to 200 nM.)
6 | CC(C(=O)N[C@H]1CC[C@@H](Nc2nc3c(c(N(C)C)n2)CCCC3)CC1)c1ccc(N2Cc3ccccc3C2=O)cc1 (stereo partly drawn) [compound 985, N-(cis-4-{[4-(dimethylamino)-5,6,7,8-tetrahydroquinazolin-2-yl]amino}cyclohexyl)-2-[4-(1-oxo-1,3-dihydro-2H-isoindol-2-yl)pheny]propanamide] | 2 (Class 2: The value of percent of control at 10^−7 M was from 40% to 60% or the value of IC′50 was from 50 nM to 200 nM.)
7 | CN(C)c1nc(N[C@H]2CC[C@@H](NC(=O)Cc3c[nH]c4ccccc34)CC2)nc2c1CCCC2 [compound 986, N-(cis-4-{[4-(diniethylamino)-5,6,7,8-tetrahydroquinazolin-2-yl]amino}cyclohexyl)-2-(1H-indol-3-yl)acetamide] | 1 (Class 1: The value of percent of control at 10^−7 M was less than 40% or the value of IC50 was less than 50 nM.)
8 | Cc1sc(-c2ccccc2)nc1CC(=O)N[C@H]1CC[C@@H](Nc2nc3c(c(N(C)C)n2)CCCC3)CC1 [compound 987] | 3 (Class 3 The value of percent of control at 10^−7 M was more than 60% or the value of IC50 was more than 200 nM.)
9 | COc1ccc(CSC2(CC(=O)N[C@H]3CC[C@@H](Nc4nc5c(c(N(C)C)n4)CCCC5)CC3)CCCCC2)cc1 [compound 989] | 3 (Class 3 The value of percent of control at 10^−7 M was more than 60% or the value of IC50 was more than 200 nM.)
10 | COc1ccc2c(CC(=O)N[C@H]3CC[C@@H](Nc4nc5c(c(N(C)C)n4)CCCC5)CC3)cc(=O)oc2c1 [compound 990] | 1 (Class 1: The value of percent of control at 10^−7 M was less than 40% or the value of IC50 was less than 50 nM.)
11 | Cc1cc(C)c(NC(=O)Nc2ccc(OC(F)(F)F)cc2)c(C(=O)N[C@H]2CC[C@@H](Nc3nc4c(c(N(C)C)n3)CCCC4)CC2)c1 [compound 993] | 1 (Class 1: The value of percent of control at 10^−7 M was less than 40% or the value of IC50 was less than 50 nM.)
12 | CN(C)c1nc(N[C@H]2CC[C@@H](NC(=O)c3cc(Cl)cc(Cl)c3NC(=O)C#Cc3ccccc3)CC2)nc2c1CCCC2 [compound 994] | 1 (Class 1: The value of percent of control at 10^−7 M was less than 40% or the value of IC50 was less than 50 nM.)
13 | CN(C)c1nc(N[C@H]2CC[C@@H](NC(=O)c3cccc(-n4c(-c5ccc(Br)cc5)cc5c4CC(C)(C)CC5=O)c3)CC2)nc2c1CCCC2 [compound 995] | 3 (Class 3 The value of percent of control at 10^−7 M was more than 60% or the value of IC50 was more than 200 nM.)
14 | CN(C)c1nc(N[C@H]2CC[C@@H](NC(=O)Cc3ccccc3C(=O)Nc3ccc(Cl)cc3Cl)CC2)nc2c1CCCC2 [compound 999] | 3 (Class 3 The value of percent of control at 10^−7 M was more than 60% or the value of IC50 was more than 200 nM.)
15 | Cc1c(C(=O)N[C@H]2CC[C@@H](Nc3nc4c(c(N(C)C)n3)CCCC4)CC2)cc(-c2ccccc2)n1CCCN1CCOCC1 [compound 1000] | 1 (Class 1: The value of percent of control at 10^−7 M was less than 40% or the value of IC50 was less than 50 nM.)
16 | CN(C)c1nc(N[C@H]2CC[C@@H](NC(=O)CCCc3ccc([N+](=O)[O-])cc3)CC2)nc2c1CCCC2 [compound 1001] | 1 (Class 1: The value of percent of control at 10^−7 M was less than 40% or the value of IC50 was less than 50 nM.)
17 | CN(C)c1nc(N[C@H]2CC[C@@H](NC(=O)/C=C/c3ccccc3[N+](=O)[O-])CC2)nc2c1CCCC2 [compound 1002] | 3 (Class 3 The value of percent of control at 10^−7 M was more than 60% or the value of IC50 was more than 200 nM.)
18 | CN(C)c1nc(N[C@H]2CC[C@@H](NC(=O)Cc3cccc(Oc4ccccc4)c3)CC2)nc2c1CCCC2 [compound 1003] | 2 (Class 2: The value of percent of control at 10^−7 M was from 40% to 60% or the value of IC′50 was from 50 nM to 200 nM.)
19 | CN(C)c1nc(N[C@H]2CC[C@@H](NC(=O)Cc3ccc(Oc4ccccc4)cc3)CC2)nc2c1CCCC2 [compound 1004] | 2 (Class 2: The value of percent of control at 10^−7 M was from 40% to 60% or the value of IC′50 was from 50 nM to 200 nM.)
20 | CN(C)c1nc(N[C@H]2CC[C@@H](NC(=O)Cc3c(-c4ccccc4)[nH]c4ccccc34)CC2)nc2c1CCCC2 [compound 1005] | 1 (Class 1: The value of percent of control at 10^−7 M was less than 40% or the value of IC50 was less than 50 nM.)
21 | CN(C)c1nc(N[C@H]2CC[C@@H](NC(=O)c3cccc(Oc4ccccc4)c3)CC2)nc2c1CCCC2 [compound 1007] | 1 (Class 1: The value of percent of control at 10^−7 M was less than 40% or the value of IC50 was less than 50 nM.)
22 | CN(C)c1nc(N[C@H]2CC[C@@H](NC(=O)c3ccccc3CCc3ccccc3)CC2)nc2c1CCCC2 [compound 1008] | 3 (Class 3 The value of percent of control at 10^−7 M was more than 60% or the value of IC50 was more than 200 nM.)
23 | CN(C)c1nc(N[C@H]2CC[C@@H](NC(=O)c3cccc(C(=O)c4ccccc4)c3)CC2)nc2c1CCCC2 [compound 1009] | 3 (Class 3 The value of percent of control at 10^−7 M was more than 60% or the value of IC50 was more than 200 nM.)
24 | CCSC(C(=O)N[C@H]1CC[C@@H](Nc2nc3c(c(N(C)C)n2)CCCC3)CC1)(c1ccccc1)c1ccccc1 [compound 1010] | 2 (Class 2: The value of percent of control at 10^−7 M was from 40% to 60% or the value of IC′50 was from 50 nM to 200 nM.)

Same assay, conditions: class by percent of control at 10^-7 M or IC50

Row | Compound | class
25 | Cc1cc(C(=O)N[C@H]2CC[C@@H](Nc3nc4c(c(N(C)C)n3)CCCC4)CC2)ccc1[N+](=O)[O-] [compound 965] | 1 (Class 1: The value of percent of control at 10^−7 M was less than 40% or the value of IC50 was less than 50 nM.)
26 | COc1cc(C(=O)N[C@H]2CC[C@@H](Nc3nc4c(c(N(C)C)n3)CCCC4)CC2)ccc1[N+](=O)[O-] [compound 966] | 1 (Class 1: The value of percent of control at 10^−7 M was less than 40% or the value of IC50 was less than 50 nM.)
27 | CN(C)c1nc(N[C@H]2CC[C@@H](NC(=O)c3cn(Cc4ccccc4)c4ccccc34)CC2)nc2c1CCCC2 [compound 967] | 3 (Class 3 The value of percent of control at 10^−7 M was more than 60% or the value of IC50 was more than 200 nM.)
28 | CC(=O)c1cccc(C(=O)N[C@H]2CC[C@@H](Nc3nc4c(c(N(C)C)n3)CCCC4)CC2)c1 [compound 968] | 1 (Class 1: The value of percent of control at 10^−7 M was less than 40% or the value of IC50 was less than 50 nM.)
29 | CN(C)c1nc(N[C@H]2CC[C@@H](NC(=O)C3CCCC[C@H]3C(=O)c3ccccc3)CC2)nc2c1CCCC2 (stereo partly shown) [compound 969] | 3 (Class 3 The value of percent of control at 10^−7 M was more than 60% or the value of IC50 was more than 200 nM.)
30 | CN(C)c1nc(N[C@H]2CC[C@@H](NC(=O)c3ccc(Br)o3)CC2)nc2c1CCCC2 [compound 970, 5-bromo-N-(cis-4-{[4-(dimethylamino)-5,6,7,8-tetrahydroquinazolin-2-yl]amino}cyclohexyl)-2-furamide] | 1 (Class 1: The value of percent of control at 10^−7 M was less than 40% or the value of IC50 was less than 50 nM.)
31 | CN(C)c1nc(N[C@H]2CC[C@@H](NC(=O)CCC3CCCCC3)CC2)nc2c1CCCC2 [compound 971] | 3 (Class 3 The value of percent of control at 10^−7 M was more than 60% or the value of IC50 was more than 200 nM.)
32 | Cc1ccnc(SCC(=O)N[C@H]2CC[C@@H](Nc3nc4c(c(N(C)C)n3)CCCC4)CC2)n1 [compound 972] | 2 (Class 2: The value of percent of control at 10^−7 M was from 40% to 60% or the value of IC′50 was from 50 nM to 200 nM.)
33 | CN(C)c1nc(N[C@H]2CC[C@@H](NC(=O)c3ccc(-c4ccc(Cl)cc4)o3)CC2)nc2c1CCCC2 [compound 973] | 1 (Class 1: The value of percent of control at 10^−7 M was less than 40% or the value of IC50 was less than 50 nM.)
34 | CN(C)c1nc(N[C@H]2CC[C@@H](NC(=O)CCc3ccc(Cl)c(Cl)c3)CC2)nc2c1CCCC2 [compound 974] | 3 (Class 3 The value of percent of control at 10^−7 M was more than 60% or the value of IC50 was more than 200 nM.)
35 | CN(C)c1nc(N[C@H]2CC[C@@H](NC(=O)Cc3ccc(Cl)c(Cl)c3)CC2)nc2c1CCCC2 [compound 975] | 1 (Class 1: The value of percent of control at 10^−7 M was less than 40% or the value of IC50 was less than 50 nM.)
36 | COc1cc(CC(=O)N[C@H]2CC[C@@H](Nc3nc4c(c(N(C)C)n3)CCCC4)CC2)cc(OC)c1O [compound 976] | 1 (Class 1: The value of percent of control at 10^−7 M was less than 40% or the value of IC50 was less than 50 nM.)
37 | CN(C)c1nc(N[C@H]2CC[C@@H](NC(=O)c3cc(Br)c(Br)s3)CC2)nc2c1CCCC2 [compound 977, 4,5-dibromo-N-(cis-4-{[4-(dimethylamino)-5,6,7,8-tetrahydroquinazolin-2-yl]amino}cyclohexyl)thiophene-2-carboxamide] | 2 (Class 2: The value of percent of control at 10^−7 M was from 40% to 60% or the value of IC′50 was from 50 nM to 200 nM.)
